pIC50: −log10 of the molar value.
System: P. falciparum NF54
Experiment: antimalarial activity, P. falciparum NF54 parasites in vitro
Format: cell-based
Details: Plasmodium falciparum, NF54, read-out: Antimalarial Activity IC50
Protocol: (§1) The protozoan Plasmodium falciparum is a causative agent of malaria, the single most critical infectious disease of mankind. The antimalarial activity of the endoperoxides was determined according to the method of Desjardins et al. (16) as modified by Milhous et al. (17). Briefly, the antimalarial activity of the endoperoxides was tested in a tritiated-hypoxanthine incorporation assay by determining the concentration of the test compound needed to inhibit 50% of the replication of Plasmodium falciparum (IC50) in human red blood cells.
Tables 4 and 5 show the structures and antimalarial activities of unsaturated and saturated bicyclic [2.2.2] endoperoxides of the invention. Compounds of this formula wherein R and R' are identical are particularly preferred. It is expected that compounds wherein R and R' are selected from the groups [drawing 33] will be especially useful. […]

Row | SMILES | pIC50
1 | CC(C)(C)[Si](C)(C)Oc1ccc(C23CCCC(c4ccccc4)(CC2)OO3)cc1 (centres unmarked) [Table 6, R = OSiMe2 Bu-t] | 6.54
2 | CC(C)(C)[Si](C)(C)OCc1ccc(C23CCCC(c4ccccc4)(CC2)OO3)cc1 (centres unmarked) [Table 6, R = CH2 OSiMe2 Bu-t] | 7.00

Same assay, conditions: Plasmodium falciparum; P. falciparum NF54 parasites in vitro; read-out: Antimalarial Activity IC50

Row | SMILES | pIC50
3 | c1ccc(C23CCCC(c4ccccc4)(CC2)OO3)cc1 [Ar = Ph, X = CH2] | 7.05
4 | Cc1ccc(C23C=CC(c4ccc(C)cc4)(CC2)OO3)cc1 [R = Me, R' = Me] | 6.85
5 | Fc1ccc(C23C=CC(c4ccc(F)cc4)(CC2)OO3)cc1 [R = F, R' = F] | 7.15
6 | Fc1ccc(C23C=CC(c4ccccc4)(CC2)OO3)cc1 (centres unmarked) [R = H, R' = F] | 7.15

Further lines, results first:

Row | pIC50 | SMILES
7 | 7.09 | FC(F)(F)c1ccc(C23CCC(c4ccc(C(F)(F)F)cc4)(CC2)OO3)cc1 [Table 5, R = CF3]
8 | 7.09 | OCc1ccc(C23CCCC(c4ccccc4)(CC2)OO3)cc1 (centres unmarked) [Table 6, R = CH2 OH]
9 | 7.38 | Fc1ccc(C23CCCC(c4ccccc4)(CC2)OO3)cc1 (centres unmarked) [Table 6, R = F]
10 | 7.20 | Fc1ccc(C23CCC(c4ccc(F)cc4)(CC2)OO3)cc1 [Table 5, R = F]
11 | 6.68 | c1ccc(C23CCC(c4ccccc4)(CC2)OO3)cc1 [Table 5, R = H]
12 | < 5.60 | Oc1ccc(C23CCCC(c4ccccc4)(CC2)OO3)cc1 (centres unmarked) [Table 6, R = OH]
13 | 6.74 | C1=CC2(c3ccccc3)CCC1(c1ccccc1)OO2 [n = 2]

System: Plasmodium falciparum
Experiment: antimalarial activity, tritiated-hypoxanthine incorporation assay in human red blood cells
Format: cell-based
Details: Erythrocyte, read-out: IC50 (inhibition of 50% of the replication of Plasmodium falciparum)
Protocol: as §1
It is particularly noted that JHU 2886 has an excellent therapeutic index (ratio of activity to toxicity). At 1 μM, JHU 2886 has a therapeutic index of 70/0, whereas at the same concentration artimisinin has a therapeutic index of 76/10 (7.6), and atovaquone has a therapeutic index of only 95/17 (5.6). […] The first two compounds are known while the following five are being disclosed for the first time. […] Compounds of this formula wherein Ar is p-FCH2 Ph or p-HOCH2 Ph and X is CH2 are also expected to be particularly useful. […]

Row | SMILES | pIC50
14 | Fc1ccc(C23CCCC(c4ccc(F)cc4)(CC2)OO3)cc1 [Ar = p-FPh, X = CH2] | 7.42
15 | COc1ccc(C23CCCC(c4ccc(OC)cc4)(CC2)OO3)cc1 [Ar = p-MeOPh, X = CH2] | 7.21
16 | c1ccc(C23CCCC(c4ccccc4)(CC2)OO3)cc1 [Ar = Ph, X = CH2] | 7.05
17 | CC1(C)CC2(c3ccccc3)CCC(c3ccccc3)(C1)OO2 [Ar = Ph, X = C(CH3)2] | < 6.00
18 | c1ccc(C23CCC(c4ccccc4)(CC4(CCCCC4)C2)OO3)cc1 [Ar = Ph, X = drawing 40] | < 6.00
19 | C1=CC2(c3ccccc3)CCCC1(c1ccccc1)OO2 | 6.82
20 | O=S1(=O)CC2(c3ccccc3)CCC(c3ccccc3)(C1)OO2 [Ar = Ph, X = SO2] | < 6.00

Results, then the compound that gave them:

Row | pIC50 | SMILES
21 | 6.39 | C1=CC2(c3ccccc3)CCCCC1(c1ccccc1)OO2 [n = 4]
22 | 6.82 | C1=CC2(c3ccccc3)CCC1(c1ccccc1)OO2 [n = 2]
23 | 6.19 | C1=CC2(c3ccccc3)CC1(c1ccccc1)OO2 [n = 1]
